In patent US20240043418A1, “1,3-DIHYDRO-2H-PYRROLO[3,4-C]PYRIDINE DERIVATIVES AS GABAA A5 RECEPTOR MODULATORS” (Richter Gedeon Nyrt., priority 2020, published 2024):

Key:
[1] = target: T1, human recombinant GABAA α5β3γ2 receptor (Homo sapiens (Human), UniProt P18507+P31644); assay: Receptor binding assay, [3H]Ro151788 displacement on membranes of HEK cells; settings: [3H]Ro151788 0.5 nM, HEK cell membranes, 60 minutes at 4° C.; read-out: hGABAA α5 Ki
Experimental: The GABAA α5β3γ2 protein used for the receptor binding assay was derived from membranes produced from HEK cells (Millipore CYL3073) expressing the human recombinant GABAA α5β3γ2 receptor. Cells were stored and cultured in-house according to the instructions provided by the vendor (Millipor). Cell pellet was homogenized in 10 times modified Krebs Henseleit buffer (membrane preparation buffer): 20 mM Tris, 120 mM NaCl, 100 mM KCl, 25 mM CaCl2 and 25 mM MgCl2 pH=7.4 at 4° C. using Ultra Turrax (Janke&Kunkel) maximal speed for 15 seconds. The homogenate was centrifuged at 40,000 g for 30 minutes at 4° C. Supernatant was discarded and the resulting pellet was washed in membrane preparation buffer. Pellet was resuspended in membrane preparation buffer and aliquots of 1.4 mL ampulles were stored at −70° C. until use.
Receptor binding assays were performed in 96-well format in deep-well plates. For each 96-well plate one ampulle of membrane homogenate was thawed and diluted in binding buffer (50 mM Tris pH=7.4, 100 mM KCl) and 200 μL was dispensed into each well. Radioligand [^3H]Rol51788 (Perkin Elmer: NET757250UC) was prepared in binding buffer and added to each well in 50 μL volume to give final concentration of 0.5 nM. Test compounds in suitable concentration(s) were added in additional 50 μL. The final assay volume was 300 μL. Incubation was carried out for 60 minutes at 4° C. For non-specific binding 10 μM unlabeled diazepam was used. […] The plate was read in Microbeta (Perkin Elmer).
The specific radioligand binding (SB) was defined as the difference between total binding (Tot) and the non-specific binding (NSB). Results are expressed as a percent inhibition of specific binding obtained in the presence of compound of interest.
For IC50 and Ki determination a minimum of six drug concentrations in triplicate were used. […] Ki values (i.e. inhibition constants) were calculated using the Cheng-Prusoff equation Ki=IC50/[1+(L/KD)], where [L] is the radioligand concentration and KD the affinity of the labelled ligand for receptor. KD was determined from the Saturation analyses.

[2] = target: T1, human recombinant GABAA α5β3γ2 receptor; assay: Functional assay, QPatch automated patch clamp, modulation of GABA-evoked current; type: cell-based; settings: tested at 10 μM; GABA 1 μM; HEK293 cells; percentage modulation of peak current
Experimental: (§1) Human HEK293 cell lines expressing GABAA α1β3γ2 and GABAA α5β3γ2 receptors were used in functional assays using the QPatch automated patch clamp system.
(§2) HEK293 cell lines stably expressing human recombinant GABAA α1β3γ2 receptor subunits (Millipore, CYL3073) or human recombinant GABAA α5β3γ2 receptor subunits (Millipore, CYL3053) were cultured in DMEM supplemented with 10% FBS (Gibco), passed two times per week and plated on Petri dishes previously coated with poly-d-lysine.
(§3) Automated whole-cell patch clamp recordings were made from cells 2-4 days after plating. Cells were detached using trypsin/EDTA (Sigma) treatment (2 minutes in 0.25% trypsin at 37° C.), then, after centrifugation (125G, 3 min, 2×), resuspended in a serum-free based media (Gibco, CHO-S-SFM-II) containing 12.5 mM HEPES, 1×penicillin-streptomycin-amphotericin (SigmaMix) and soybean trypsin inhibitor (Sigma, 0.04 mg/ml).
(§4) Cell suspension, as well as the extracellular solution (130 mM NaCl, 5 mM KCl, 5.1 mM HEPES, 4.9 mM HEPES-Na, 10 mM CaCl2), 2 mM MgCl2, 10 mM glucose and 0.1% DMSO, pH=7.35-7.4) and the intracellular solution (80 mM KCl, 50 mM KF, 36 mM KOH, 10 mM EGTA, 10 mM HEPES, 1.75 mM MgCl2, 0.5 mM CaCl2), 4 mM Na2ATP. 14 mM phosphocreatine, 50 U/ml creatine-phosphokinase, 0.3 mM GTP, pH=7.25-7.3) were added to the QPatch-HTX automated patch clamp system (Sophion) in single-cell mode at room temperature. Inward currents were evoked at a holding potential of −80 mV by 3-s-long applications of the control agonist GABA at sub-maximal effective concentration (1 μM) at 2-4-min intervals first in concentration-matched DMSO (0.1 or 0.3%) control solution for five times, then in the presence of the test compound for four times, finally in control solution again for three times (wash-out). At the end of the experiment 100 μM GABA was applied to saturate the GABA-response and to assess the efficacy of the control GABA application. Current signals were low-pass filtered at 100 Hz and recorded at a sampling rate of 1 kHz.
(§5) The percentage modulation was calculated from the comparison of GAB A-evoked peak current amplitudes in the presence and absence of the test compound.

[3] = target: human recombinant GABAA α1β3γ2 receptor (Homo sapiens (Human), UniProt P14867+P18507); assay: as above; type: cell-based; settings: tested at 10 μM; GABA 1 μM; HEK293 cells; percentage modulation of peak current
Experimental: as §1, §2, §3, §4, §5

T1 sequence (P31644 32-462): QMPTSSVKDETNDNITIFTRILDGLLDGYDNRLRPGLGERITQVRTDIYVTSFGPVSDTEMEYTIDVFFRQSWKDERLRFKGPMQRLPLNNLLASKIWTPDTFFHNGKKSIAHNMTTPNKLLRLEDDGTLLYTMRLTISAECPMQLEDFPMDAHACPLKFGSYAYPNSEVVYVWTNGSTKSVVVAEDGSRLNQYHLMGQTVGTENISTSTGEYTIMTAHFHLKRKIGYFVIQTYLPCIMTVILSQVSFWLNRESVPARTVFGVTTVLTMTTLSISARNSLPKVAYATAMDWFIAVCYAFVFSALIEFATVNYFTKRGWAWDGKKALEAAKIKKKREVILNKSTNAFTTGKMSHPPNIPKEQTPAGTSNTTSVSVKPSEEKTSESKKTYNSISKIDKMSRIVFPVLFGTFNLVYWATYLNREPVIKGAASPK
T1 sequence (P18507 40-475): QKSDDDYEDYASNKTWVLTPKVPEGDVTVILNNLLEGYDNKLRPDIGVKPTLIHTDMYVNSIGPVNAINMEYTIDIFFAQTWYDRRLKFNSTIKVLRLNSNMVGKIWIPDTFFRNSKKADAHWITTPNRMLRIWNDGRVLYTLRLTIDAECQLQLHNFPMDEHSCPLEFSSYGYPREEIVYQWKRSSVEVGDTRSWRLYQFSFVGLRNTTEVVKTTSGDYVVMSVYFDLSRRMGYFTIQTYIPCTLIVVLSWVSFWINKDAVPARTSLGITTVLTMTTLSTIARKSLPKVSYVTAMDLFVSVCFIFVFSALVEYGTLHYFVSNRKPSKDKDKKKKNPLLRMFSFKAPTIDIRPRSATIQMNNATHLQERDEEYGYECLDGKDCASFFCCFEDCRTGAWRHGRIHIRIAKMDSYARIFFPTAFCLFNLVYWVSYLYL
T1 sequence (P28472 26-473 partner): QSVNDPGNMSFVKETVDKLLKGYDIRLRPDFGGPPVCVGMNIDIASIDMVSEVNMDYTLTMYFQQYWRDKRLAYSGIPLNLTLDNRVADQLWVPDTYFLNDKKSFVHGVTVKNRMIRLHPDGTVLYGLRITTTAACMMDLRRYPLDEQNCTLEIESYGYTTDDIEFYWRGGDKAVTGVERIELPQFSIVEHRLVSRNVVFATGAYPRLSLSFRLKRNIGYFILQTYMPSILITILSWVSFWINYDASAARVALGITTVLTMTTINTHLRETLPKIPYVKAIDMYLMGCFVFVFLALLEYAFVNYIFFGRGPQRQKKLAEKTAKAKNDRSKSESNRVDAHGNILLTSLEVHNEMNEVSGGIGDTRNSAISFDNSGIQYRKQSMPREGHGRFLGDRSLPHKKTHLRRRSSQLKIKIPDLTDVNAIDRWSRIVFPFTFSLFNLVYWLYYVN
Sequence of human recombinant GABAA α1β3γ2 receptor (P14867 28-456): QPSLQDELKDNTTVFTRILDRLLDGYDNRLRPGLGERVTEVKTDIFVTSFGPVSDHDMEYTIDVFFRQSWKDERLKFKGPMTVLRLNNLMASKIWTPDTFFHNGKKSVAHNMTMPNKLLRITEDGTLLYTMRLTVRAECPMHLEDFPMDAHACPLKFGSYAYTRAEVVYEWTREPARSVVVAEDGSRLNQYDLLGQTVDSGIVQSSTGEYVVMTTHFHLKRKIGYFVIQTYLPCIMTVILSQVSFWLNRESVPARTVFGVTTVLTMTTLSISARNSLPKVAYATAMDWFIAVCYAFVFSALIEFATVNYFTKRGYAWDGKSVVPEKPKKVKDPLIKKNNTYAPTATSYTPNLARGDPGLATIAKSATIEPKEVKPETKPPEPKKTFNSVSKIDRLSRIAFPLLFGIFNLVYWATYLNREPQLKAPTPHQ
Sequence of human recombinant GABAA α1β3γ2 receptor (P18507 40-475): as the sequence (P18507 40-475) above
Sequence of human recombinant GABAA α1β3γ2 receptor (P28472 26-473 partner): as the sequence (P28472 26-473 partner) above

Ki [1]	hGABAA α5 efficacy [2]	hGABAA α1 efficacy [3]	SMILES
10 nM	−43%	−2%	CC(=O)N1Cc2cnc(OCc3c(C)nnn3-c3ccc(F)cc3)cc2C1 [Example 1, 1-(6-{[1-(4-fluorophenyl)-4-methyl-1H-1,2,3-triazol-5-yl]methoxy}-1,3-dihydro-2H-pyrrolo[3,4-c]pyridin-2-yl)ethanone]
32 nM	−47%	−6%	CC(=O)N1Cc2cnc(OCc3c(-c4ccc(F)cc4)nnn3C)cc2C1 [Example 2, 1-(6-{[4-(4-fluorophenyl)-1-methyl-1H-1,2,3-triazol-5-yl]methoxy}-1,3-dihydro-2H-pyrrolo[3,4-c]pyridin-2-yl)ethanone]
0.9 nM	−44%	13%	CC(=O)N1Cc2cnc(OCc3c(-c4ccc(F)cc4)noc3C)cc2C1 [Example 3, 1-(6-{[3-(4-fluorophenyl)-5-methyl-1,2-oxazol-4-yl]methoxy}-1,3-dihydro-2H-pyrrolo[3,4-c]pyridin-2-yl)ethanone]
